Results as given in US9493448B2, “Cycloalkane derivatives” (Daiichi Sankyo Company, Limited, priority 2012, dated 2016).

How the values were obtained:
hNav 1.7 = hNav 1.7 (Homo sapiens (Human), UniProt Q15858); assay: Electrophysiological evaluation, automated patch clamp IonWorks Quattro (Population Patch Clamp mode); type: cell-based; conditions: HEK293A cells stably expressing hNav 1.7/β1/β2; response to second depolarization pulse, pre-pulse potential set to V1/2; read-out: hNav1.7 IC50
[1] = system: mice and rats affected by thermal hyperalgesia; assay: Thermal hyperalgesia assay; type: in vivo; conditions: oral administration, constant dose, against the vehicle treatment group; latency to escape behaviors after thermal stimulation of hind paw;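 note: measurement times set by the study director and not disclosed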
[2] = system: painful diabetic neuropathy; conditions: cited from earlier work

Chain of hNav 1.7 (Q15858 whole entry): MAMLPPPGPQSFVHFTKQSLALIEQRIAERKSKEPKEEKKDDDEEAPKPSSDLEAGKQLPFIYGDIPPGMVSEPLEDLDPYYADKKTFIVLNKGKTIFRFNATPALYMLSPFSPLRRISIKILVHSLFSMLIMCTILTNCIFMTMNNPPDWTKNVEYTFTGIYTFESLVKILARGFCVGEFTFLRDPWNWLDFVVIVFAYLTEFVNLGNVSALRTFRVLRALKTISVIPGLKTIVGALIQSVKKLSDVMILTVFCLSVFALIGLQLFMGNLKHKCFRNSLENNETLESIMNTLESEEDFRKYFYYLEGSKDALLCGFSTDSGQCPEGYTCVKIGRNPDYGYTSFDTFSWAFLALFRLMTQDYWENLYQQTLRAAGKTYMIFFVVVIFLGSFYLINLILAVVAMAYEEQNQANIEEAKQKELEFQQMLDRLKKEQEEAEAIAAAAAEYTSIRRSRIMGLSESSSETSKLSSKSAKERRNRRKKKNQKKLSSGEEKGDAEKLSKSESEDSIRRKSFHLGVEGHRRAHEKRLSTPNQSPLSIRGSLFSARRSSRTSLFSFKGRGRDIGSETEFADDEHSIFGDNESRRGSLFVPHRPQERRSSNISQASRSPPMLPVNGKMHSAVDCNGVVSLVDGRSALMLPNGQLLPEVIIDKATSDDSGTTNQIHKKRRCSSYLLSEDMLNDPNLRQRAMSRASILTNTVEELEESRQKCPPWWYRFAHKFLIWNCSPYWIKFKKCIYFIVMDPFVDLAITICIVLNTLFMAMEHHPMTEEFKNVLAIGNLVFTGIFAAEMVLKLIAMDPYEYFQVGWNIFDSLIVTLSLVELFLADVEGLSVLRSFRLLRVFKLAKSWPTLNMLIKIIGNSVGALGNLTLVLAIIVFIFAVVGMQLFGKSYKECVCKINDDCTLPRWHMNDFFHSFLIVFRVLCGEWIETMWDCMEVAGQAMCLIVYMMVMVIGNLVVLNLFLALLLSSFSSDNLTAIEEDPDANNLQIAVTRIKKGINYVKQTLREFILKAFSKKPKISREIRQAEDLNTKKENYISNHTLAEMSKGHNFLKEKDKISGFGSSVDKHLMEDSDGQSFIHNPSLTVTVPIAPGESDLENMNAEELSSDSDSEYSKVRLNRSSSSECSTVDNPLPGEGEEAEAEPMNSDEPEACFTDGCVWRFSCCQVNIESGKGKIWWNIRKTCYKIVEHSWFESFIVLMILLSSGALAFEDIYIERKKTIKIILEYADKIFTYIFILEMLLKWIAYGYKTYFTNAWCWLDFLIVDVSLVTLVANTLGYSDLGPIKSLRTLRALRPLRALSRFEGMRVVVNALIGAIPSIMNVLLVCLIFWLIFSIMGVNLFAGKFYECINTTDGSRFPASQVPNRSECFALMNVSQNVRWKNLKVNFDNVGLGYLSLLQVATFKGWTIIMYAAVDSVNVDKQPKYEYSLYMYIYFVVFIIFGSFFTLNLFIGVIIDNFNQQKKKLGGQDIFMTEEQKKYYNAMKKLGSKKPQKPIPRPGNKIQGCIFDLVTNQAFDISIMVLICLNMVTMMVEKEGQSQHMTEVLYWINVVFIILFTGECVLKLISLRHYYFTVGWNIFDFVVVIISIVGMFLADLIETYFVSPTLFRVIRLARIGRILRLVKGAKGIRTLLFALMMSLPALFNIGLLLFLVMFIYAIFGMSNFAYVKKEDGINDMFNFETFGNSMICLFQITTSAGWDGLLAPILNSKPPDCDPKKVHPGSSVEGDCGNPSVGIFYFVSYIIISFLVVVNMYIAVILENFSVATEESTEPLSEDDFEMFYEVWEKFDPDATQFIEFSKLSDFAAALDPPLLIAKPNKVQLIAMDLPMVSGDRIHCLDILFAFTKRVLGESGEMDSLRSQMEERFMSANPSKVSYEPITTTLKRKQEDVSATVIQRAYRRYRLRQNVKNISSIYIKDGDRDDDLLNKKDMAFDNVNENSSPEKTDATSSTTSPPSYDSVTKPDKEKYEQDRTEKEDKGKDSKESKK
Chain of hNav 1.7 (Q07699 19-218 partner): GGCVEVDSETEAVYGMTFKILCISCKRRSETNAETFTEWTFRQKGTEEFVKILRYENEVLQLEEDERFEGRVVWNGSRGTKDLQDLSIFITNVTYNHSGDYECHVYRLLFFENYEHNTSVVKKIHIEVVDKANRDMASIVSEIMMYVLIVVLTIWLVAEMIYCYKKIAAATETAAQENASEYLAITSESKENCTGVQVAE
Chain of hNav 1.7 (O60939 30-215 partner): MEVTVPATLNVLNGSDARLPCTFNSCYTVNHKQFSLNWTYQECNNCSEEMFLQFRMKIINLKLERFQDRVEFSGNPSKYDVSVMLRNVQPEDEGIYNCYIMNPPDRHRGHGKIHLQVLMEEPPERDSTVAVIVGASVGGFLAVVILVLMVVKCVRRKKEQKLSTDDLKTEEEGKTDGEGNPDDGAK

| Compound | IC50 (hNav 1.7) [nM] | Ratio of improving pain score (%) [1] | effective therapeutic ratio based on self-evaluation of patients [2] |
| --- | --- | --- | --- |
| O=S(=O)(Nc1ccncn1)c1cc(Cl)c(O[C@H]2CC(F)(F)CC[C@@H]2c2cn[nH]c2)cc1F (relative stereo) [Example 152, 5-Chloro-4-{[(1S*,2R*)-5,5-difluoro-2-(1H-pyrazol-4-yl)cyclohexyl]oxy}-2-fluoro-N-(pyrimidin-4-yl)benzenesulfonamide] | 17 | B (“B” when the rate was 31 to 60%) | – |
| CCn1nccc1[C@@H]1CCC[C@H]1Oc1ccc(S(=O)(=O)Nc2ccncn2)c(F)c1F [Example 118, 4-{[(1R,2S)-2-(1-Ethyl-1H-pyrazol-5-yl)cyclopentyl]oxy}-2,3-difluoro-N-(pyrimidin-4-yl)benzenesulfonamide] | 21000 | A (“A” when the rate was 61 to 100%) | – |
| CCn1nccc1[C@H]1CCC[C@@H]1Oc1ccc(S(=O)(=O)Nc2ccncn2)c(F)c1F [Example 119, 4-{[(1S,2R)-2-(1-Ethyl-1H-pyrazol-5-yl)cyclopentyl]oxy}-2,3-difluoro-N-(pyrimidin-4-yl)benzenesulfonamide] | 100 | A (“A” when the rate was 61 to 100%) | – |
| Cn1nccc1[C@@H]1CCC[C@H]1Oc1ccc(S(=O)(=O)Nc2ccncn2)c(F)c1 [Example 128, 2-Fluoro-4-{[(1R,2S)-2-(1-methyl-1H-pyrazol-5-yl)cyclopentyl]oxy}-N-(pyrimidin-4-yl)benzenesulfonamide] | 92000 | B (“B” when the rate was 31 to 60%) | – |
| Cc1cc(S(=O)(=O)Nc2ccncn2)c(F)cc1O[C@H]1CC(F)(F)CC[C@@H]1c1ccnn1C [Example 137, 4-{[(1S,2R)-5,5-Difluoro-2-(1-methyl-1H-pyrazol-5-yl)cyclohexyl]oxy}-2-fluoro-5-methyl-N-(pyrimidin-4-yl)benzenesulfonamide] | 30 | A (“A” when the rate was 61 to 100%) | – |
| Cc1cc(S(=O)(=O)Nc2ccncn2)c(F)cc1O[C@H]1CC(F)(F)CC[C@@H]1c1cn[nH]c1 [Example 143, 4-{[(1S,2R)-5,5-Difluoro-2-(1H-pyrazol-4-yl)cyclohexyl]oxy}-2-fluoro-5-methyl-N-(pyrimidin-4-yl)benzenesulfonamide] | 21 | B (“B” when the rate was 31 to 60%) | – |
| Cc1cc(S(=O)(=O)Nc2ccncn2)c(F)cc1O[C@H]1CCC[C@@H]1c1ccn[nH]1 [Example 148, 2-Fluoro-5-methyl-4-{[(1S,2R)-2-(1H-pyrazol-5-yl)cyclopentyl]oxy}-N-(pyrimidin-4-yl)benzenesulfonamide] | 18 | B (“B” when the rate was 31 to 60%) | – |
| O=S(=O)(Nc1ccncn1)c1cc(Cl)c(O[C@H]2CCC[C@@H]2c2ccn[nH]2)cc1F [Example 150, 5-Chloro-2-fluoro-4-{[(1S,2R)-2-(1H-pyrazol-5-yl)cyclopentyl]oxy}-N-(pyrimidin-4-yl)benzenesulfonamide] | 21 | C (“C” when the rate was 0 to 30%) | – |
| O=S(=O)(Nc1ccncn1)c1cc(Cl)c(O[C@H]2CCCC[C@@H]2c2ccn[nH]2)cc1F [Example 158, 5-Chloro-2-fluoro-4-{[(1S,2R)-2-(1H-pyrazol-5-yl)cyclohexyl]oxy}-N-(pyrimidin-4-yl)benzenesulfonamide] | 28 | C (“C” when the rate was 0 to 30%) | – |
| Cn1nccc1[C@H]1C[C@H](O)CC[C@@H]1Oc1cc(F)c(S(=O)(=O)Nc2ccncn2)cc1Cl [Example 165, 5-Chloro-2-fluoro-4-{[(1S,2R,4R)-4-hydroxy-2-(1-methyl-1H-pyrazol-5-yl)cyclohexyl]oxy}-N-(pyrimidin-4-yl)benzenesulfonamide] | 40 | B (“B” when the rate was 31 to 60%) | – |
| O=S(=O)(Nc1ccncn1)c1c(F)cc(O[C@H]2CCCC[C@@H]2c2cn[nH]c2)cc1F [Example 171, 2,6-Difluoro-4-{[(1S,2R)-2-(1H-pyrazol-4-yl)cyclohexyl]oxy}-N-(pyrimidin-4-yl)benzenesulfonamide] | 43 | B (“B” when the rate was 31 to 60%) | – |
| CC(C)C[C@H](CN)CC(=O)O [pregabalin] | – | – | approximately 50% |
